Experiment: xn = mol fraction of the nth substance listed

CCCOCCO + CN(C)C=O
298.15 K, 101 kPa
Conditions	viscosity [mPa·s]
x1 = 0.0076	0.821
x1 = 0.0172	0.834
x1 = 0.029	0.846
x1 = 0.0502	0.874
x1 = 0.1029	0.948
x1 = 0.1416	0.998
x1 = 0.1927	1.07
x1 = 0.264	1.18
x1 = 0.2944	1.223
x1 = 0.3428	1.289
x1 = 0.3521	1.305
x1 = 0.4414	1.458
x1 = 0.5181	1.582
x1 = 0.5987	1.726
x1 = 0.6457	1.809
x1 = 0.6982	1.895
x1 = 0.7555	1.989
x1 = 0.8533	2.164
x1 = 0.9398	2.308
x1 = 0.9729	2.345

CCCCn1cc[n+](C)c1.[Cl-] + CO
101 kPa
Conditions	viscosity [mPa·s]
293.15 K, x2 = 0.5001	65.2
293.15 K, x2 = 0.7002	8.41
298.15 K, x2 = 0.7015	7.51
308.15 K, x2 = 0.7001	6.61

CCCOCCO + CO
298.15 K, 101.33 kPa
Conditions	viscosity [mPa·s]
x1 = 0.0024	0.553
x1 = 0.0177	0.581
x1 = 0.041	0.62
x1 = 0.0504	0.644
x1 = 0.0697	0.673
x1 = 0.0903	0.729
x1 = 0.1252	0.801
x1 = 0.159	0.865
x1 = 0.1826	0.914
x1 = 0.2208	0.989
x1 = 0.2613	1.084
x1 = 0.2874	1.149
x1 = 0.3049	1.199
x1 = 0.341	1.284
x1 = 0.3895	1.394
x1 = 0.4426	1.499
x1 = 0.4816	1.577
x1 = 0.5329	1.68
x1 = 0.5596	1.737
x1 = 0.6366	1.878
x1 = 0.6677	1.927
x1 = 0.7153	2.014
x1 = 0.7701	2.115
x1 = 0.8053	2.16
x1 = 0.8437	2.194
x1 = 0.8812	2.248
x1 = 0.9415	2.323
x2 = 0.0116	2.347

N#Cc1ccccc1 + CO
Conditions	viscosity [mPa·s]
303 K, 100 kPa, x1 = 0.0991	0.6312
303 K, 100 kPa, x1 = 0.2405	0.7232
303 K, 100 kPa, x1 = 0.3585	0.7886
303 K, 100 kPa, x1 = 0.4974	0.8399
303 K, 100 kPa, x1 = 0.6272	0.9121
303 K, 100 kPa, x1 = 0.7094	0.9522
303 K, 100 kPa, x1 = 0.8023	0.9912
303 K, 100 kPa, x1 = 0.897	1.035
303.15 K, 101.33 kPa, x1 = 0.0854	0.562
303.15 K, 101.33 kPa, x1 = 0.1569	0.603
303.15 K, 101.33 kPa, x1 = 0.2408	0.652
303.15 K, 101.33 kPa, x1 = 0.4349	0.763
303.15 K, 101.33 kPa, x1 = 0.5335	0.82
303.15 K, 101.33 kPa, x1 = 0.6304	0.875
303.15 K, 101.33 kPa, x1 = 0.7155	0.926
303.15 K, 101.33 kPa, x1 = 0.8439	1.011
303.15 K, 101.33 kPa, x1 = 0.9059	1.061
308 K, 100 kPa, x1 = 0.0991	0.5712
308 K, 100 kPa, x1 = 0.2405	0.6523
308 K, 100 kPa, x1 = 0.3585	0.7123
308 K, 100 kPa, x1 = 0.4974	0.7652
308 K, 100 kPa, x1 = 0.6272	0.8012
308 K, 100 kPa, x1 = 0.7094	0.8307
308 K, 100 kPa, x1 = 0.8023	0.8716
308 K, 100 kPa, x1 = 0.897	0.9146
308.15 K, 101.33 kPa, x1 = 0.0854	0.525
308.15 K, 101.33 kPa, x1 = 0.1569	0.562
308.15 K, 101.33 kPa, x1 = 0.2408	0.608
308.15 K, 101.33 kPa, x1 = 0.4349	0.709
308.15 K, 101.33 kPa, x1 = 0.5335	0.761
308.15 K, 101.33 kPa, x1 = 0.6304	0.811
308.15 K, 101.33 kPa, x1 = 0.7155	0.859
308.15 K, 101.33 kPa, x1 = 0.8439	0.938
308.15 K, 101.33 kPa, x1 = 0.9059	0.985
313 K, 100 kPa, x1 = 0.0991	0.5056
313 K, 100 kPa, x1 = 0.2405	0.5595
313 K, 100 kPa, x1 = 0.3585	0.6235
313 K, 100 kPa, x1 = 0.4974	0.6856
313 K, 100 kPa, x1 = 0.6272	0.7325
313 K, 100 kPa, x1 = 0.7094	0.7731
313 K, 100 kPa, x1 = 0.8023	0.8134
313 K, 100 kPa, x1 = 0.897	0.8658

N#Cc1ccccc1 + COC(C)(C)C
viscosity [mPa·s], 101.33 kPa
Conditions	x2 = 0.1048	x2 = 0.2024	x2 = 0.3015	x2 = 0.3969	x2 = 0.4912	x2 = 0.6055	x2 = 0.7115	x2 = 0.7995	x2 = 0.905
293.15 K	1.277	1.18	1.081	0.9863	0.8924	0.7787	0.6732	0.5856	0.4806
298.15 K	1.185	1.096	1.006	0.9189	0.8329	0.7286	0.6319	0.5516	0.4554

Reference: the CheMixHub viscosity set
